Where two headings read alike, the source gives them in different places.
What was measured:
human CB2 receptors = biological target: T1, human CB2 receptors (Homo sapiens, UniProt P34972); test: Human CB2 radioligand binding assay ([3H]CP-55,940 competition)
T1 construct: expressed in transfected cells; host or cells: HEK293
Procedure, shortened: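 Membranes from HEK293 cells stably expressing human CB2 (5 μg/well) incubated 90 min at 30 °C with 0.5 nM [3H]CP-55,940 and five concentrations of displacer (0.01 nM–10 μM) in pH 7.4 Tris/EDTA/MgCl2 buffer with fatty acid free BSA. Bound radioactivity counted after filtration; nonspecific binding defined with 10 μM unlabeled CP-55,940.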

rat CB2 receptors = biological target: T2, rat CB2 receptors (Rattus norvegicus, UniProt Q9QZN9); test: Rat CB2 radioligand binding assay ([3H]CP-55,940 competition)
T2 construct: expressed in transfected cells; host or cells: HEK293
T2 sequence (Q9QZN9 1-360): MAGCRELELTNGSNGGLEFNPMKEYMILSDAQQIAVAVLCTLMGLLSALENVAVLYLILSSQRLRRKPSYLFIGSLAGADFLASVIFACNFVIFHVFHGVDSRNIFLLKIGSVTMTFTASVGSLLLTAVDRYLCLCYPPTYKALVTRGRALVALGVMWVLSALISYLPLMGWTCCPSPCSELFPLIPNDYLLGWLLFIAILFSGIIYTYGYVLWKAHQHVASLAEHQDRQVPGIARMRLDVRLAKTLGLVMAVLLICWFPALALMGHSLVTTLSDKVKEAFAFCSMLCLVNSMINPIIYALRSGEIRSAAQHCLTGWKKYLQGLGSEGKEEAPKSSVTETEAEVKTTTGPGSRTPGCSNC
Procedure, shortened: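 Membranes from HEK293 cells stably expressing rat CB2 (20 μg/well) incubated 45 min at 30 °C with 0.5 nM [3H]CP-55,940 and five competitor concentrations in Tris/EDTA/MgCl2 buffer with 0.5 mg/mL BSA, pH 7.4. Filtration and scintillation counting; nonspecific binding with 10 μM unlabeled CP-55,940.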

T1 sequence (P34972 whole entry): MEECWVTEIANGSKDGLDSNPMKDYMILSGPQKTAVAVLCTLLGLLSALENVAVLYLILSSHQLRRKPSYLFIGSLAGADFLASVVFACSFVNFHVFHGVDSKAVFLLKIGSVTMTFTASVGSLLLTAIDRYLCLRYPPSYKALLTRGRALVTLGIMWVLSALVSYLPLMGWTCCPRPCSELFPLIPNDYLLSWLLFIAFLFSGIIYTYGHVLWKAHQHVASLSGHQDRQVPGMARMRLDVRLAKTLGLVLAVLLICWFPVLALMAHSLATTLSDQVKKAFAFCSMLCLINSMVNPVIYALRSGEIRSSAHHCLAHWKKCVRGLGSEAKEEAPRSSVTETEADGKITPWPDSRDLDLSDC

Row | Compound | Ki (human CB2 receptors) [nM] | Ki (rat CB2 receptors) [nM] | Ki (human CB2 receptors; HEK293 membranes, 0.5 nM [3H]CP-55,940, read-out: human CB2 Ki) [nM]
1 | Cn1c(C(C)(C)C)c/c(=N\C(=O)c2cc(C(F)(F)F)ccc2/C=C/C(C)(C)O)n1C[C@H]1CCCO1 [Example 100, N-{(3E)-5-tert-butyl-1-methyl-2-[(2R)-tetrahydrofuran-2-ylmethyl]-1,2-dihydro-3H-pyrazol-3-ylidene}-2-[(1E)-3-hydroxy-3-methylbut-1-enyl]-5-(trifluoromethyl)benzamide] | 3.2 | 1.1 | –
2 | Cn1c(C(C)(C)C)c/c(=N\C(=O)c2cc(C(F)(F)F)ccc2CCC(C)(C)O)n1C[C@H]1CCCO1 [Example 101, N-{(3E)-5-tert-butyl-1-methyl-2-[(2R)-tetrahydrofuran-2-ylmethyl]-1,2-dihydro-3H-pyrazol-3-ylidene}-2-(3-hydroxy-3-methylbutyl)-5-(trifluoromethyl)benazmide] | 49 | 34 | –
3 | Cn1c(C2(C)CC2)c/c(=N\C(=O)c2cc(C(F)(F)F)ccc2OCC2(O)CCC2)n1C[C@H]1CCCO1 [Example 102, 2-[(1-hydroxycyclobutyl)methoxy]-N-{(3E)-1-methyl-5-(1-methylcyclopropyl)-2-[(2 R)-tetrahydrofuran-2-ylmethyl]-1,2-dihydro-3H-pyrazol-3-ylidene}-5-(trifluoromethyl)benzamide] | 21 | 11 | –
4 | Cn1c(C(C)(C)C)c/c(=N\C(=O)c2cc(O)cc(C(F)(F)F)c2)n1C[C@H]1CCCO1 [Example 103, N-{(3E)-5-tert-butyl-1-methyl-2-[(2R)-tetrahydrofuran-2-ylmethyl]-1,2-dihydro-3H-pyrazol-3-ylidene}-3-hydroxy-5-(trifluoromethyl)benzamide] | 16 | 4.4 | –
5 | Cn1c(C(C)(C)C)c/c(=N\C(=O)c2cc(Br)cc(C(F)(F)F)c2)n1C[C@H]1CCCO1 [Example 104, 3-bromo-N-{(3E)-5-tert-butyl-1-methyl-2-[(2R)-tetrahydrofuran-2-ylmethyl]-1,2-dihydro-3H-pyrazol-3-ylidene}-5-(trifluoromethyl)benzamide] | 46 | 9.3 | –
6 | Cn1c(C(C)(C)C)c/c(=N\C(=O)c2cc(OCCF)cc(C(F)(F)F)c2)n1C[C@H]1CCCO1 [Example 105, N-{(3E)-5-tert-butyl-1-methyl-2-[(2R)-tetrahydrofuran-2-ylmethyl]-1,2-dihydro-3H-pyrazol-3-ylidene}-3-(2-fluoroethoxy)-5-(trifluoromethyl)benazmide] | 69 | 10 | –
7 | Cn1c(C(C)(C)C)c/c(=N\C(=O)c2cc([N+](=O)[O-])cc(C(F)(F)F)c2)n1C[C@H]1CCCO1 [Example 106, N-{(3E)-5-tert-butyl-1-methyl-2-[(2R)-tetrahydrofuran-2-ylmethyl]-1,2-dihydro-3H-pyrazol-3-ylidene}-3-nitro-5-(trifluoromethyl)benzamide] | – | 63 | 168
8 | Cn1c(C(C)(C)C)c/c(=N\C(=O)c2cc(N)cc(C(F)(F)F)c2)n1C[C@H]1CCCO1 [Example 107, 3-amino-N-{(3E)-5-tert-butyl-1-methyl-2-[(2R)-tetrahydrofuran-2-ylmethyl]-1,2-dihydro-3H-pyrazol-3-ylidene}-5-(trifluoromethyl)benzamide] | 11 | 4.8 | –
9 | CN(C)CCOc1ccc(C(F)(F)F)cc1C(=O)/N=c1\oc(C(C)(C)C)cn1C[C@H]1CCCO1 [Example 108, N-[(2Z)-5-tert-butyl-3-[(2R)-tetrahydrofuran-2-ylmethyl]-1,3-oxazol-2(3 H)-ylidene]-2-[2-(dimethylamino)ethoxy]-5-(trifluoromethyl)benzamide] | 148 | 55 | –
10 | Cn1c(C(C)(C)C)c/c(=N\C(=O)c2cc(C(F)(F)F)ccc2/C=N\OC(C)(C)C)n1C[C@H]1CCCO1 [Example 109, 2-[(Z)-(tert-butoxyimino)methyl]-N-{(3E)-5-tert-butyl-1-methyl-2-[(2R)-tetrahydrofuran-2-ylmethyl]-1,2-dihydro-3H-pyrazol-3-ylidene}-5-(trifluoromethyl)benzamide] | 23 | 15 | –
11 | COCc1ccc(C(F)(F)F)cc1C(=O)/N=c1\cc(C(C)(C)C)n(C)n1C[C@H]1CCCO1 [Example 110, N-{(3E)-5-tert-butyl-1-methyl-2-[(2R)-tetrahydrofuran-2-ylmethyl]-1,2-dihydro-3H-pyrazol-3-ylidene}-2-(methoxymethyl)-5-(trifluoromethyl)benzamide] | 12 | 3 | –
12 | Cn1c(C(C)(C)C)c/c(=N\C(=O)c2cc(C(F)(F)F)ccc2CC(=O)OC(C)(C)C)n1C[C@H]1CCCO1 [Example 111, tert-butyl [2-[({(3E)-5-tert-butyl-1-methyl-2-[(2R)-tetrahydrofuran-2-ylmethyl]-1,2-dihydro-3H-pyrazol-3-ylidene}amino)carbonyl]-4-(trifluoromethyl)phenyl]acetate] | 14 | 12 | –
13 | Cn1c(C(C)(C)C)c/c(=N\C(=O)c2cc(C(F)(F)F)ccc2N)n1C[C@H]1CCCO1 [Example 112, 2-amino-N-{(3E)-5-tert-butyl-1-methyl-2-[(2R)-tetrahydrofuran-2-ylmethyl]-1,2-dihydro-3H-pyrazol-3-ylidene}-5-(trifluoromethyl)benzamide] | 3.3 | 2.4 | –
14 | Cn1c(C(C)(C)C)c/c(=N\C(=O)c2cc(C(F)(F)F)ccc2NS(C)(=O)=O)n1C[C@H]1CCCO1 [Example 113, N-{(3E)-5-tert-butyl-1-methyl-2-[(2R)-tetrahydrofuran-2-ylmethyl]-1,2-dihydro-3H-pyrazol-3-ylidene}-2-[(methylsulfonyl)amino]-5-(trifluoromethyl)benzamide] | 110 | 40 | –
15 | Cn1c(C(C)(C)C)c/c(=N\C(=O)c2cc(C#N)ccc2F)n1C[C@H]1CCCO1 [Example 114, N-{(3E)-5-tert-butyl-1-methyl-2-[(2R)-tetrahydrofuran-2-ylmethyl]-1,2-dihydro-3H-pyrazol-3-ylidene}-5-cyano-2-fluorobenzamide] | 41 | 20 | –
16 | COC(=O)c1cccc(C(=O)/N=c2\cc(C(C)(C)C)n(C)n2C[C@H]2CCCO2)c1 [Example 115] | 25 | 5.4 | –
17 | Cn1c(C(C)(C)C)c/c(=N\C(=O)c2cc(Cl)ccc2F)n1C[C@H]1CCCO1 [Example 116] | 26 | 11 | –
18 | COC(=O)C12CC3CC(CC(C(=O)/N=c4\cc(C(C)(C)C)n(C)n4C[C@H]4CCCO4)(C3)C1)C2 [Example 118] | 42 | 14 | –
19 | Cn1c(C(C)(C)C)c/c(=N\C(=O)c2cc(C(F)(F)F)ccc2OCC2CC(=NO)C2)n1C[C@H]1CCCO1 (stereo partly drawn) [Example 119, N-{(3E)-5-tert-butyl-1-methyl-2-[(2R)-tetrahydrofuran-2-ylmethyl]-1,2-dihydro-3H-pyrazol-3-ylidene}-2-{[3-(hydroxyimino)cyclobutyl]methoxy}-5-(trifluoromethyl)benzamide] | 70 | 25 | –
20 | Cn1c(C(C)(C)C)c/c(=N\C(=O)c2cc(C(F)(F)F)ccc2NC(=O)OC(C)(C)C)n1C[C@H]1CCCO1 [Example 120, tert-butyl 2-[({(3E)-5-tert-butyl-1-methyl-2-[(2R)-tetrahydrofuran-2-ylmethyl]-1,2-dihydro-3H-pyrazol-3-ylidene}amino)carbonyl]-4-(trifluoromethyl)phenylcarbamate] | 1.7 | 2.1 | –
